In this experiment the test system is human melanoma cell line (Mel-Ho). The experiment is described as follows: Melanocyte dendrite outgrowth assay. The class given is cell-based. Conditions: Mel-Ho cells; for induction of melanocyte dendricity (in words): different concentrations, 24 hours. The source says: A possibility to test the effect of a compound on melanocyte function as a measure for pigmentation, the melanocyte dendrite outgrowth assay can be performed. Vitiligo melanocytes for example have only stubby dendrites. Increasing dendricity as a prerequisite for the transfer of the melanosomes from melanocytes to the surrounding keratinocytes rescues this defect. For this assay, cells from a human melanoma cell line (Mel-Ho) were obtained from DSMZ (Deutsche Sammlung für Mikroorganismen and Zellkulturen) and were cultured according to the protocol provided by DSMZ. In short, after thawing the melanocytes were cultured in T-75 flasks in melanocyte culture media (provided by the manufacturer) until they reach 70-80% confluency. The melanocytes were then trypsinized, transferred into 5-10 new T-75 flasks, and grown again to same confluency as described above. After this expansion step the melanocytes were immediately used for the Melanocyte Dendrite Outgrowth Assay or were frozen for later use. For the assay, the melanocytes were seeded in 24 well plates at a density of 1-5×10^4 cells/well. After 24 hours, the melanocytes were treated with 100 μM IBMX (Sigma-Aldrich) or different concentrations of Sildenafil and Tadalafil for 24 hours. IBMX (=3-isobutyl-1-methylxanthin) is known to cause increased melanocyte dendricity and was used as a positive control. Cells treated with media only were used as a negative control. Melanocyte dendrite outgrowth was documented by digital photography (Canon G2 Powershot) after 3, 6 and 24 hours. In addition, melanocyte dendricity was scored by 3 blinded individuals after 24 hours. The score ranges from 1 to 4; 1 representing melanocytes with no dendrites and 4 representing melanocytes with many long and branched dendrites. […] 10 μM Sildenafil was used to obtain an score of >3, however also lower concentrations (down to 10 nM) of Sildenafil was sufficient to induce dendrite formation. The experiment was performed as described in Example 1, however using Tadalafil as active component.

“Also recorded” adds a separate entry of the source.

Data on two compounds can be found in US8329656B2, “Use of a PDE5 inhibitor for treating and preventing hypopigmentary disorders” (Switch Biotech AG, priority 2004, dated 2012).

Consider `CCCc1nn(C)c2c(=O)[nH]c(-c3cc(S(=O)(=O)N4CCN(C)CC4)ccc3OCC)nc12` [Sildenafil, 5-[2-Ethoxy-5-(4-methyl-1-piperazinylsulfonyl)phenyl]-1-methyl-3-n-propyl-1,6-dihydro-7H-pyrazolo[4,3-d]pyrimidin-7-one], for which the “induction of melanocyte dendricity (in words)” value is listed as “strongly increased dendricity”. Where the note is “lower concentrations than 10 μM”, the “concentration sufficient to induce dendrite formation” value was at least 10 nM.
As to `CN1CC(=O)N2C(Cc3c([nH]c4ccccc34)[C@H]2c2ccc3c(c2)OCO3)C1=O` (stereo partly drawn) [Tadalafil, (6R,12aR)-2,3,6,7,12,12a-hexahydro-2-methyl-6-(3,4-methylenedioxyphenyl)pyrazino[1′,2′:1,6]pyrido[3,4-b]indole-1,4-dione], the “induction of melanocyte dendricity (in words)” value is “very similar to the results obtained with Sildenafil; also recorded: effectively induces dendricity; also recorded: strongly increased dendricity”.
